In patent US20250213707A1, “COMPOUND FOR INCREASING EFFICACY OF ONCOLYTIC VIRUSES” (ABLEVIA BIOTECH GMBH, priority 2022, published 2025):

Test system: IgG from human donors (anti-AAV antibodies)
Assay: Screen for anti-AAV antibodies in human sera, 2452 linear 15-amino-acid AAV peptides on microarrays (Table 1)
Format: binding
Parameters: key to group I: X: the deduplicated aggregate of the respective top 10 peptide hits for each donor was compiled and designated as group I; key to group II: X: the deduplicated aggregate of the respective top 25 peptide hits for each donor was compiled and designated as group II; key to group III: X: the deduplicated aggregate of the respective top 50 peptide hits for each donor was compiled and designated as group III
Conditions: for group I: membership in deduplicated aggregate of top 10 peptide hits for each donor; for group II: membership in deduplicated aggregate of top 25 peptide hits for each donor
Method: 2452 linear peptides derived from the sequences of 16 different AAVs and with a sequence length of 15 amino-acids each were synthesized.
Samples obtained from human donors were screened for antibodies against these AAV-derived peptides immobilized on microarrays. To this end, IgG was prepared from blood obtained from the human donors by protein G purification. Each IgG sample was incubated with the peptide microarrays and Ig binding signals were detected by fluorescence. All antibody binding signals to the peptides on the arrays were background subtracted and ranked for each sample and a deduplicated aggregate of the respective top 250 peptide hits for each donor with the corresponding protein sequence of origin (as obtained from UniProt or other sources) was compiled (designated as group IV). Further, the deduplicated aggregate of the respective top 50 peptide hits for each donor was compiled and designated as group III. Further, the deduplicated aggregate of the respective top 25 peptide hits for each donor was compiled and designated as group II. Finally, the deduplicated aggregate of the respective top 10 peptide hits for each donor was compiled and designated as group I.
Altogether, group I contains 110 distinct peptide hits (assigned to the corresponding AAV vectors in Table 1), group II contains 289 distinct peptide hits, group III contains 428 distinct peptide hits and group IV contains 1271 distinct peptide hits. Evidently, group I is a subset of group II which in turn is a subset of group III which in turn is a subset of group IV. Groups I-IV correspond to the top 4.4%, […], 17.5% and 51.8%, respectively, of all peptides screened.

[1] = X = peptide belongs to the deduplicated aggregate of the top 50 peptide hits for each donor, linear 15-amino-acid AAV peptides, IgG binding by fluorescence
[2] = X = peptide in the deduplicated aggregate of the top 50 peptide hits for each donor (top 17.5% of all peptides screened), linear 15-amino-acid AAV peptides on microarrays, human donor IgG, fluorescence
[3] = human donor IgG binding to linear 15-amino-acid AAV peptides on microarray, fluorescence
[4] = membership in deduplicated aggregate of top 50 peptide hits for each donor, human donor IgG binding to linear 15-amino-acid AAV peptides on microarray, fluorescence

Substance	group III [1]	group III [2]	group I [3]	group II [3]	group III [4]
350 (TQYSTGQVSVEIEWE; REGION 1..15: note = peptide derived from viral capsid protein) [compound 350]	X				
366 (MVWQDRDVYLQGPIW; REGION 1..15: note = peptide derived from viral capsid protein) [compound 366]	X				
357 (SLDRLMNPLIDQYLY; REGION 1..15: note = peptide derived from viral capsid protein) [compound 357]	X				
311 (QGVLPGMVWQDRDVY; REGION 1..15: note = peptide derived from viral capsid protein) [compound 311]	X				
297 (DSLVNPGVAMATHDD; REGION 1..15: note = peptide derived from viral capsid protein) [compound 297]	X				
411 (ILIKNTPVPADPPTA; REGION 1..15: note = peptide derived from viral capsid protein) [compound 411]		X			
DKDKFFPMSGVMIF (REGION 1..14: note = peptide derived from viral capsid protein) [SEQ ID NO: 1933]			X	X	X
NPGVAMATHKDDEE [SEQ ID NO: 1957]			X	X	X
PWGYFDFNRFHCHF (REGION 1..14: note = peptide derived from viral capsid protein) [SEQ ID NO: 1961]			X	X	X
GTNTMATGSGAPMA (REGION 1..14: note = peptide derived from viral capsid protein) [SEQ ID NO: 1927]			X	X	X
294 (GDSESVPDPQPIGEP; REGION 1..15: note = peptide derived from viral capsid protein) [compound 294]	X				
HSQSLDRLMNPLID (REGION 1..14: note = peptide derived from viral capsid protein) [SEQ ID NO: 1951]			X	X	X
316 (EPVKTAPGKKRPVEH; REGION 1..15: note = peptide derived from viral capsid protein) [compound 316]	X				
PLVDQYLYRFVSTN (REGION 1..14: note = peptide derived from viral capsid protein) [SEQ ID NO: 1938]			X	X	X
FQERLQEDTSFGGN [SEQ ID NO: 1949]			X	X	X
337 (ADNNEGADGVGNSSG; REGION 1..15: note = peptide derived from viral capsid protein) [compound 337]	X				
414 (GNGLDKGEPVNAADA; REGION 1..15: note = peptide derived from viral capsid protein) [compound 414]		X			
406 (NNNSEFAWPGASSWA; REGION 1..15: note = peptide derived from viral capsid protein) [compound 406]		X			
385 (TTSTRTWALPTYNNH; REGION 1..15: note = peptide derived from viral capsid protein) [compound 385]	X				
369 (EYQLPYVLGSAHQGC; REGION 1..15: note = peptide derived from viral capsid protein) [compound 369]	X				
447 (YNNHLYKQISNGTSG; REGION 1..15: note = peptide derived from viral capsid protein) [compound 447]		X			
DSQWLGDRVITTST (REGION 1..14: note = peptide derived from viral capsid protein) [SEQ ID NO: 1892]			X	X	X
HYFGYSTPWGYFDF (REGION 1..14: note = peptide derived from viral capsid protein) [SEQ ID NO: 1917]			X	X	X

Substance	group III [1]	group III [2]	group I [3]	group II [3]	group III [4]
ADPPTTFSQAKLAS [SEQ ID NO: 1939]			X	X	X
APGKKRPVDQSPQE (REGION 1..14: note = peptide derived from viral capsid protein) [SEQ ID NO: 1918]			X	X	X
DKAYDQQLQAGDNP (REGION 1..14: note = peptide derived from viral capsid protein) [SEQ ID NO: 1928]			X	X	X
348 (NHYFGYSTPWGYFDF; REGION 1..15: note = peptide derived from viral capsid protein) [compound 348]	X				
370 (FITQYSTGQVSVEIE; REGION 1..15: note = peptide derived from viral capsid protein) [compound 370]	X				
DKAYDRQLDSGDNP (REGION 1..14: note = peptide derived from viral capsid protein) [SEQ ID NO: 1926]			X	X	X
291 (KDNVDYSSVMLTSEE; REGION 1..15: note = peptide derived from viral capsid protein) [compound 291]	X				
347 (AVNLQSSSTDPATGD; REGION 1..15: note = peptide derived from viral capsid protein) [compound 347]	X				
331 (DSLVNPGPAMASHKD; REGION 1..15: note = peptide derived from viral capsid protein) [compound 331]	X				
315 (PFPADVFMVPQYGYL; REGION 1..15: note = peptide derived from viral capsid protein) [compound 315]	X				
479 (DSTTTIANNLTSTVQ; REGION 1..15: note = peptide derived from viral capsid protein) [compound 479]		X			
PPQILIKNTPVPAD [SEQ ID NO: 1959]			X	X	X
292 (HDDEERFFPSSGVLM; REGION 1..15: note = peptide derived from viral capsid protein) [compound 292]	X				
329 (DADSVPDPQPLGQPP; REGION 1..15: note = peptide derived from viral capsid protein) [compound 329]	X				
384 (HSSYAHSQSLDRLMN; REGION 1..15: note = peptide derived from viral capsid protein) [compound 384]	X				
453 (FGYSTPWGYFDFNRF; REGION 1..15: note = peptide derived from viral capsid protein) [compound 453]		X			
DEEEIKATNPVATE (REGION 1..14: note = peptide derived from viral capsid protein) [SEQ ID NO: 1932]			X	X	X
314 (EHDKAYDRQLDSGDN; REGION 1..15: note = peptide derived from viral capsid protein) [compound 314]	X				
KNTPVPADPPTTFS (REGION 1..14: note = peptide derived from viral capsid protein) [SEQ ID NO: 1953]			×	X	X
424 (ENSKRWNPEIQYTSN; REGION 1..15: note = peptide derived from viral capsid protein) [compound 424]		X			
LQQQNTAPQIGTVN (REGION 1..14: note = peptide derived from viral capsid protein) [SEQ ID NO: 1934]			X	X	X
290 (NVDFAVNTDGTYSEP; REGION 1..15: note = peptide derived from viral capsid protein) [compound 290]	X				
